The values that follow come from US8771665B2 (Cocrystal Discovery, Inc., priority 2010, dated 2014).

The experiment concerns the target T1, HCV1b NS5B polymerase delta 21 (Hepatitis C virus genotype 1b, UniProt P26663).
T1 construct: purified HCV1b NS5B polymerase delta 21
Nature of the experiment: RNA-Dependent RNA HCV NS5B (Polymerase) Assay and IC50 Determination. The format is biochemical. How it is done:
RNA-Dependent RNA HCV NS5B (Polymerase) Assay and IC50 Determination
In vitro RNA-dependent RNA polymerase activity was determined in a reaction mixture (50 μL) containing 50 mM Tris-HCl, pH 7.5, 5 mM MgCl2, 1 mM dithiothreitol, 0.5% Triton® X-100, 10 μM of UTP, 0.1-0.5 μCi of α-^32P UTP (Perkin Elmer Life Sciences), 1 μg of polyA:U16 (Midland Oligo), and 0.6 μg of purified HCV1b NS5B polymerase delta 21. Different concentrations of compounds were added to the reaction mixtures. The reaction was carried out at RT (23° C.) for 60 min and then stopped by the addition of 100 μL of 50 mM EDTA. The reaction mixtures were filtered through either a DE81 membrane or a positively charged nylon membrane, and the membranes were then extensively washed with 30 mM sodium citrate, pH 7.0 and 300 mM NaCl. The radiolabeled RNA products were quantitated using a Storm™ Phosphorlmager™ (GE Life Sciences). IC50 values were calculated using GraFit 6 and GraphPad Prism 5 from triplicate assays.

Molecules are shown by their SMILES. Some results are limits rather than exact numbers.

T1 sequence (P26663 2420-2989): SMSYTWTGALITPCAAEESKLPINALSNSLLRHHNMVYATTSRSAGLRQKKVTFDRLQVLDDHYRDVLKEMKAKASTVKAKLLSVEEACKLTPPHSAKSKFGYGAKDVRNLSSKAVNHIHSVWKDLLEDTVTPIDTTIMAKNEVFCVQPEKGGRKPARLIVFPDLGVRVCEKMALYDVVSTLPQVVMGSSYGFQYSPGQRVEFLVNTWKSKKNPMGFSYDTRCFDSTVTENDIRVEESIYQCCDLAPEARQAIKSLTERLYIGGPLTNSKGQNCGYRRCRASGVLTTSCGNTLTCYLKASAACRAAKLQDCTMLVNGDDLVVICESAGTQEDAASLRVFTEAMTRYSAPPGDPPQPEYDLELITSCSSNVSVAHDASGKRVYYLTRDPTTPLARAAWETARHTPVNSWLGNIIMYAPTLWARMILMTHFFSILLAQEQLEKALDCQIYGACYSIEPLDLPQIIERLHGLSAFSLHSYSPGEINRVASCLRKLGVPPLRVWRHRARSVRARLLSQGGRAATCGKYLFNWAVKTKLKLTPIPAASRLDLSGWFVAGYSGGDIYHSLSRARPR

For the compound `CCN1CCC(c2cc(C#CC(C)(C)NC(=O)c3cscn3)sc2C(=O)O)=C(C2CCC(C)CC2)C1` (stereo not shown) [Example 022, 3-[1-Ethyl-5-(4-methyl-cyclohexyl)-1,2,3,6-tetrahydro-pyridin-4-yl]-5-{3-methyl-3-[(thiazole-4-carbonyl)-amino]-but-1-ynyl}-thiophene-2-carboxylic acid], the half-maximal inhibitory concentration (IC50) (commonly the concentration needed to halve the response being measured) is more than 10 µM.
To `CC1CCC(C2=C(c3cc(C#CC(C)(C)C)sc3C(=O)O)CN(CC3CCOCC3)CC2)CC1` (stereo not shown) [Example 065, 5-(3,3-Dimethyl-but-1-ynyl)-3-[4-(4-methyl-cyclohexyl)-1-(tetrahydro-pyran-4-ylmethyl)-1,2,5,6-tetrahydro-pyridin-3-yl]-thiophene-2-carboxylic acid] belongs less than 3 µM; to `CCOC(C#Cc1cc(C2=C(C3CCC(C)CC3)CN(CC)CC2)c(C(=O)O)s1)OCC` (stereo not shown) [Example 033, 5-(3,3-Diethoxy-prop-1-ynyl)-3-[1-ethyl-5-(4-methyl-cyclohexyl)-1,2,3,6-tetrahydro-pyridin-4-yl]-thiophene-2-carboxylic acid], 3 to 10 µM; to `CCN1CCC(c2cc(-c3cccc(NC(C)=O)c3)sc2C(=O)O)=C(C2CCC(C)CC2)C1` (stereo not shown) [Example 024, 5-(3-Acetylamino-phenyl)-3-[1-ethyl-5-(4-methyl-cyclohexyl)-1,2,3,6-tetrahydro-pyridin-4-yl]-thiophene-2-carboxylic acid], more than 10 µM.
As for `CC1CCC(C2=C(c3cc(I)sc3C(=O)O)CCN(C)C2)CC1` (stereo not shown) [Example 002, 5-Iodo-3-[1-methyl-5-(4-methyl-cyclohexyl)-1,2,3,6-tetrahydro-pyridin-4-yl]-thiophene-2-carboxylic acid], the figure is more than 10 µM.
To `CC1CCC(C2=C(c3cc(-c4ccc(-c5cc6ncccn6n5)cc4)sc3C(=O)O)CCN(Cc3ccccn3)C2)CC1` (stereo not shown) [Example 141, 3-[5-(4-Methyl-cyclohexyl)-1-pyridin-2-ylmethyl-1,2,3,6-tetrahydro-pyridin-4-yl]-5-(4-pyrazolo[1,5-a]pyrimidin-2-yl-phenyl)-thiophene-2-carboxylic acid] belongs 3 to 10 µM.
In turn, `CC1CCC(C2=C(c3cc(-c4ccc(NC(=O)c5cscn5)cc4F)sc3C(=O)O)CCN(C)C2)CC1` (stereo not shown) [Example 060, 5-{2-Fluoro-4-[(thiazole-4-carbonyl)-amino]-phenyl}-3-[1-methyl-5-(4-methyl-cyclohexyl)-1,2,3,6-tetrahydro-pyridin-4-yl]-thiophene-2-carboxylic acid] registered a 50% inhibitory concentration (IC50) of less than 3 µM.
To `CCN1CCC(c2cc(C#CC3CCCCC3)sc2C(=O)O)=C(C2CCC(C)CC2)C1` (stereo not shown) [Example 016, 5-Cyclohexylethynyl-3-[1-ethyl-5-(4-methyl-cyclohexyl)-1,2,3,6-tetrahydro-pyridin-4-yl]-thiophene-2-carboxylic acid] belongs more than 10 µM.
To `CC1CCC(C2=C(c3cc(-c4ccccc4)sc3C(=O)O)CCN(Cc3ccccc3)C2)CC1` (stereo not shown) [Example 043, 3-[1-Benzyl-5-(4-methyl-cyclohexyl)-1,2,3,6-tetrahydro-pyridin-4-yl]-5-phenyl-thiophene-2-carboxylic acid] belongs 3 to 10 µM.
In turn, `CC1CCC(C2=C(c3cc(C#CC4(C)CC4)sc3C(=O)O)CCN(C)C2)CC1` (stereo not shown) [Example 172, 5-(1-Methyl-cyclopropylethynyl)-3-[1-methyl-5-(4-methyl-cyclohexyl)-1,2,3,6-tetrahydro-pyridin-4-yl]-thiophene-2-carboxylic acid] registered a concentration for half-maximal inhibition (IC50) of less than 3 µM.
As for `CCN1CCC(c2cc(-c3ccccc3)sc2C(=O)O)=C(C2CCC(C)CC2)C1` (stereo not shown) [Example 044, 3-[1-Ethyl-5-(4-methyl-cyclohexyl)-1,2,3,6-tetrahydro-pyridin-4-yl]-5-phenyl-thiophene-2-carboxylic acid], the figure is less than 3 µM; as for `CC1CCC(C2=C(c3cc(-c4ccc(-c5nc6cccnc6[nH]5)cc4)sc3C(=O)O)CCN(C)C2)CC1` (stereo not shown) [Example 140, 5-[4-(3H-Imidazol-[4,5-b]pyridin-2-yl)-phenyl]-3-[1-methyl-5-(4-methyl-cyclohexyl)-1,2,3,6-tetrahydro-pyridin-4-yl]-thiophene-2-carboxylic acid], 3 to 10 µM; as for `CC1CCC(C2=C(c3cc(-c4ccccc4)sc3C(=O)O)CCN(Cc3cncnc3)C2)CC1` (stereo not shown) [Example 157, 3-[5-(4-Methyl-cyclohexyl)-1-pyrimidin-5-ylmethyl-1,2,3,6-tetrahydro-pyridin-4-yl]-5-phenyl-thiophene-2-carboxylic acid], more than 10 µM.
Compound `CC1CCC(C2=C(c3cc(-c4ccccc4)sc3C(=O)O)CCN(C(=O)c3ccncc3)C2)CC1` (stereo not shown) [Example 094, 3-[5-(4-Methyl-cyclohexyl)-1-(pyridine-4-carbonyl)-1,2,3,6-tetrahydro-pyridin-4-yl]-5-phenyl-thiophene-2-carboxylic acid] displayed an IC50 of 3 to 10 µM.
As for `CCN1CCC(c2cc(-c3ccc(NC(=O)c4cocn4)cc3)sc2C(=O)O)=C(C2CCC(C)CC2)C1` (stereo not shown) [Example 052, 3-[1-Ethyl-5-(4-methyl-cyclohexyl)-1,2,3,6-tetrahydro-pyridin-4-yl]-5-{4-[(oxazole-4-carbonyl)-amino]-phenyl}-thiophene-2-carboxylic acid], the figure is less than 3 µM; as for `CC1CCC(C2=C(c3cc(-c4ccc(NC(=O)c5ccccn5)cc4)sc3C(=O)O)CCN(C)C2)CC1` (stereo not shown) [Example 042, 3-[1-Methyl-5-(4-methyl-cyclohexyl)-1,2,3,6-tetrahydro-pyridin-4-yl]-5-{4-[(pyridine-2-carbonyl)-amino]-phenyl}-thiophene-2-carboxylic acid], less than 3 µM; as for `CN1CCC(c2cc(-c3ccccc3)sc2C(=O)O)=C(CCC2CCCC2)C1` [Example 063, 3-[5-(2-Cyclopentyl-ethyl)-1-methyl-1,2,3,6-tetrahydro-pyridin-4-yl]-5-phenyl-thiophene-2-carboxylic acid], more than 10 µM.
To `CC1CCC(C2=C(c3cc(-c4ccccc4)sc3C(=O)O)CCN(C(=O)OCc3ccccc3)C2)CC1` (stereo not shown) [Example 073] belongs more than 10 µM; to `CC1CCC(C2=C(c3cc(-c4ccc(N(C)C(=O)c5cscn5)cc4)sc3C(=O)O)CCN(C)C2)CC1` (stereo not shown) [Example 067, 3-[1-Methyl-5-(4-methyl-cyclohexyl)-1,2,3,6-tetrahydro-pyridin-4-yl]-5-{4-[methyl-(thiazole-4-carbonyl)-amino]-phenyl}-thiophene-2-carboxylic acid], 3 to 10 µM.
As for `CCOC(=O)OC(C)OC(=O)c1sc(-c2ccc(NC(=O)c3cscn3)cc2)cc1C1=C(C2CCC(C)CC2)CN(C)CC1` (stereo not shown) [Example 104, 3-[1-Methyl-5-(4-methyl-cyclohexyl)-1,2,3,6-tetrahydro-pyridin-4-yl]-5-{4-[(thiazole-4-carbonyl)-amino]-phenyl}-thiophene-2-carboxylic acid 1-ethoxycarbonyloxy-ethyl ester], the figure is more than 10 µM; as for `CCN1CCC(c2cc(-c3ccc(NC(=O)c4csc(C)n4)cc3)sc2C(=O)O)=C(C2CCC(C)CC2)C1` (stereo not shown) [Example 048, 3-[1-Ethyl-5-(4-methyl-cyclohexyl)-1,2,3,6-tetrahydro-pyridin-4-yl]-5-{4-[(2-methyl-thiazole-4-carbonyl)-amino]-phenyl}-thiophene-2-carboxylic acid], less than 3 µM.
On to `CC1CCC(C2=C(c3cc(C#CC(C)(C)C)sc3C(=O)O)CCN(Cc3ccccn3)C2)CC1` (stereo not shown) [Example 127, 5-(3,3-Dimethyl-but-1-ynyl)-3-[5-(4-methyl-cyclohexyl)-1-pyridin-2-ylmethyl-1,2,3,6-tetrahydro-pyridin-4-yl]-thiophene-2-carboxylic acid], for which the IC50 is less than 3 µM.
Consider `CCOC(=O)N1CCC(c2cc(-c3ccccc3)sc2C(=O)O)=C(C2CCC(C)CC2)C1` (stereo not shown) [Example 038, 4-(2-Carboxy-5-phenyl-thiophen-3-yl)-5-(4-methyl-cyclohexyl)-3,6-dihydro-2H-pyridine-1-carboxylic acid ethyl ester], for which the IC50 was more than 10 µM.
The compound `CC1CCC(C2=C(c3cc(I)sc3C(=O)O)CNCC2)CC1` (stereo not shown) [Example 171, 5-Iodo-3-[4-(4-methyl-cyclohexyl)-1,2,5,6-tetrahydro-pyridin-3-yl]-thiophene-2-carboxylic acid] returned an IC50 of more than 10 µM.
As for `CC1CCC(C2=C(c3cc(C#CC(C)(C)C)sc3C(=O)O)CN(CCF)CC2)CC1` (stereo not shown) [Example 124, 5-(3,3-Dimethyl-but-1-ynyl)-3-[1-(2-fluoro-ethyl)-4-(4-methyl-cyclohexyl)-1,2,5,6-tetrahydro-pyridin-3-yl]-thiophene-2-carboxylic acid], the figure is less than 3 µM.
To `CCN1CCC(c2cc(-c3cccc(N)c3)sc2C(=O)O)=C(C2CCC(C)CC2)C1` (stereo not shown) [Example 026, 5-(3-Amino-phenyl)-3-[1-ethyl-5-(4-methyl-cyclohexyl)-1,2,3,6-tetrahydro-pyridin-4-yl]-thiophene-2-carboxylic acid] belongs 3 to 10 µM; to `CCN1CCC(c2cc(C#CCOC)sc2C(=O)O)=C(C2CCC(C)CC2)C1` (stereo not shown) [Example 034, 3-[1-Ethyl-5-(4-methyl-cyclohexyl)-1,2,3,6-tetrahydro-pyridin-4-yl]-5-(3-methoxy-prop-1-ynyl)-thiophene-2-carboxylic acid], less than 3 µM; to `Cc1cc(C)n2nc(-c3ccc(-c4cc(C5=C(C6CCC(C)CC6)CN(C)CC5)c(C(=O)O)s4)cc3)cc2n1` (stereo not shown) [Example 161, 5-[4-(5,7-Dimethyl-pyrazolo[1,5-a]pyrimidin-2-yl)-phenyl]-3-[1-methyl-5-(4-methyl-cyclohexyl)-1,2,3,6-tetrahydro-pyridin-4-yl]-thiophene-2-carboxylic acid], 3 to 10 µM.
